Literature values in patent US6444676B1, “Use of PARP inhibitors in the treatment of glaucoma” (priority 1999, dated 2002).

Assays:
[1] = system: neuronal apoptosis; conditions: induced by various injuries including amino acid excitotoxicity
[2] = system: rat retina; conditions: at 3 mM or higher concentrations, administered via intracameral infusion

SMILES	prevention of neuronal apoptosis [1]	ischemia/reperfusion damage and DNA fragmentation in rat retina [2]
Oc1cccc2c(O)nccc12 [1,5-dihydroxyisoquinoline]	prevent neuronal apoptosis	–
Nc1cccc2c(=O)[nH][nH]c(=O)c12 [3-aminophtalhydrazide]	prevent neuronal apoptosis	–
NC(=O)c1ccccc1 [benzamide]	prevent neuronal apoptosis	–
NC(=O)c1cccc(N)c1 [3-aminobenzamide]	prevent neuronal apoptosis	reduce ischemia/reperfusion damage and DNA fragmentation
